Consider six compounds from patent publication US5808049A, “Stereospecific 5-fu esters and methods for preparing same” (Director-General of Agency of Industrial Science and …, priority 1994, dated 1998).

Series [1] deals with rat liver cancer cells Anr4. The experiment in a line: Anticancer effect (suppression of multiplication) on rat liver cancer cells Anr4. Type of series: cell-based. To be noted: for number of cells, % for the value of the control: 6 hours exposure, then 42 hours in fresh medium; for number of cells, % for the value of the control / multiplication of Anr4 cells suppressed to % of the control: 2880 min; for suppression of multiplication of Anr4 cells, comparison of enantiomers: Ib: at 1 μM to 0.1 μM, Ic: at 10 μM; for multiplication of Anr4 cells suppressed to % of the control: same way as in Example 2 (Example 3). The method, then: The anticancer effect of levo-rotatory or dextro-rotatory 4-bis(2-chloroethyl)aminophenyl 2-methoxy-2-phenylacetate (Ib) on rat liver cancer cells Anr4 was tested. Anr4 cells were suspended, in an amount of cells number of 1×10^6 per 1 ml, in William's E medium containing 10% of fetal bovine serum, and 0.1 ml of the suspension was distributed to each well of a 24-well multiplate. Further, 1.385 ml of the above medium was added to each well. They were cultured for 4 hours at 37° C. in a CO2 incubator, and then 15 μl of pure ethanol or an ethanol solution containing (R)-(-)-Ib or (S)-(+)-Ib obtained in Synthetic. Example 4, having a concentration of 10 mM, 1 mM, 0.1 mM, 0.01 mM, or 0.001 mM, was added to the medium in each well, and they were mixed well.
After they were cultured for 6 hours in the above incubator, the medium was removed by suction, and 1.5 ml of fresh medium was added. After culturing was continued for 42 hours, the number of cells in each well was counted by a Coulter counter. The results, in terms of % for the value of the control (the well added pure ethanol), were 9%, 12%, 16%, 55%, and 95% for the concentrations of 100 μM, 10 μM, 1 μM, 0.1 μM, and 0.01 μM of (R)-(-)-Ib in the medium, respectively. For the concentrations of 100 μM, 10 μM, 1 μM, 0.1 μM, and 0.01 μM of (S)-(+)-Ib in the medium, the results were 9%, 18%, 30%, 83%, and 95%, respectively.
The anticancer effect of the optically active substances of Ic obtained in Synthetic Example 5 on Anr4 cells was tested in the same way as in Example 2. As a result, at 10 μM, (R)-(+)-Ic suppressed the multiplication of Anr4 cells to 14% of the control, and (S)-(-)-Ic suppressed the multiplication of Anr4 cells to 25% of the control.

The nature of series [2]: in vitro. To be noted: rat, xc cells, pH 7.5.
Procedure: (§1) Each of the reaction mixtures was prepared by dissolving 1 mg of the ester in 10 μl of ethanol, and by mixing with it, 90 μl of a 0.1M phosphoric acid buffer (having a pH of 7.5), plus one of the following: 100 μl of a cell suspension, or 20 or 30 μl of whole blood, or 50 μl of tissue homogenate. […] The cells numbers in 100 μl of the cell suspension used in the reaction were as follows: rat liver cancer cells Anr4=7×10^6 ; rat pancreas cancer cells ARIP=8×10^6 ; rat sarcoma cells XC=5×10^6 ; human histiocytic leukemia cells U937=1×10^7 ; human pancreas cancer cells MIA PaCa-2=8×10^6 ; and human intestinum crassum cancer cells Colo 320=1×10^7. Fifty μl of the tissue homogenate corresponded to 20 mg of wet tissue.
(§2) Each of these reaction mixtures was stirred for 12 hours at 30° C. by a magnetic stirrer; then 1.5 μl of 2N HCl was added, to bring the pH to about 2.5, and extraction with 1 ml of ethyl acetate in the presence of a saturated sodium chloride was carried out twice. The ethyl acetate layers of each sample were combined, the volume was adjusted to precisely 2 ml, and it was divided into 1.7 ml and 0.3 ml. The former was concentrated under reduced pressure, and the contained produced carboxylic acid was isolated by thin-layer preparative chromatography. A solution of diazomethane in ether was added to it, to methylate it, and the absolute configuration and the optical purity of the methylated product were determined by high-performance liquid chromatography using a chiral column. The latter 0.3 ml was directly methylated, and then it was concentrated and adjusted to 0.3 ml again, and the methyl ester of the contained produced carboxylic acid was determined quantitatively by gas chromatography, from which the hydrolyzed rate was determined. The column used in the high-performance liquid chromatography was a Chiralcell OJ or OD column (trade name; 4.6×250 mm) manufactured by Daicel; the elution was carried out by using a 10% 2-propanol/hexane mixture; and the flow velocity was 1 or 0.75 ml/min. The column used in the gas chromatography was a capillary column of OV-1 (0.25 mm×25 m), and the analysis temperature was 120° to 180° C.
Series [3] is described as follows: Stereoselective hydrolysis of anticancer agent esters with rat whole blood. To be noted: pH 7.5; for enantiomer excess of the carboxylic acid produced by the hydrolysis: rat whole blood, 12 hours at 30° C.
Procedure: as §1, §2
Series [4] is described as follows: in vitro. To be noted: rat, blood, pH 7.5.
Procedure: as §1, §2
Series [5] can be described thus: in vitro. The following applies: rat, arip cells, pH 7.5.
Procedure: as §1, §2
For series [6], the system named is rat liver cancer cells Anr4. As to the kind of experiment: Stereoselective hydrolysis of anticancer agent esters with rat liver cancer cells Anr4. The following applies: Anr4; 12 hours at 30° C., pH 7.5.
Procedure: as §1, §2
Series [7] relates to rat sarcoma cells XC. As to the kind of experiment: Stereoselective hydrolysis of anticancer agent esters with rat sarcoma cells XC. The following applies: XC; 12 hours at 30° C., pH 7.5.
Procedure: as §1, §2
Series [8] is described as follows: Stereoselective hydrolysis of anticancer agent esters with normal rat liver homogenate. To be noted: 12 hours at 30° C., pH 7.5.
The nature of series [9]: Stereoselective hydrolysis of anticancer agent esters with normal rat pancreas homogenate. To be noted: 12 hours at 30° C., pH 7.5.
Procedure: as §1, §2
In series [10] the test system is rat pancreas cancer cells ARIP. The experiment in a line: Stereoselective hydrolysis of anticancer agent esters with rat pancreas cancer cells ARIP. To be noted: ARIP; 12 hours at 30° C., pH 7.5.
Procedure: as §1, §2
Series [11] is described as follows: in vitro. The following applies: rat, anr4 cells, pH 7.5.
Procedure: as §1, §2
A short description of series [12]: Stereoselective hydrolysis of anticancer agent esters with normal rat muscle homogenate. To be noted: 12 hours at 30° C., pH 7.5.
Series [13] in a line: Stereoselective hydrolysis of anticancer agent esters with rat liver cancer cells Anr4. To be noted: rat, anr4 cells, pH 7.5.
Procedure: as §1, §2
Series [14] in a line: Stereoselective hydrolysis of anticancer agent esters with rat sarcoma cells XC. To be noted: rat, xc cells, pH 7.5.
Procedure: as §1, §2
The nature of series [15]: Stereoselective hydrolysis of anticancer agent esters with rat pancreas cancer cells ARIP. The following applies: rat, arip cells, pH 7.5.
Procedure: as §1, §2

Regarding `CO[C@@H](C(=O)Oc1ccc(N(CCCl)CCCl)cc1)c1ccccc1` [(R)-(-)-Ib, 4-bis(2-chloroethyl)aminophenyl 2-methoxy-2-phenylacetate], the “number of cells, % for the value of the control” value amounted to 95% in series [1] (0.01 μM); 55% in series [1] (0.1 μM); 16% in series [1] (1 μM); 12% in [1] (10 μM); 9% in series [1] (100 μM). Moreover, the “suppression of multiplication of Anr4 cells, comparison of enantiomers” value in series [1] is given as “suppressed the multiplication of Anr4 cells more strongly than dextro-rotatory (S)-(+)-Ib did”.

On to `COC(C(=O)Oc1ccc(N(CCCl)CCCl)cc1)c1ccccc1` (racemic) [Ib, (±)-4-bis(2-chloroethyl)aminophenyl 2-methoxy-2-phenylacetate], for which the metabolised at 12 h came out at 23.9% in series [2], 55.2% in [4], 55.2% in series [5] and 14% in series [11]. The “enantiomer excess of the carboxylic acid produced by the hydrolysis” value (“enantiomer excess” below) in [3] came to 20.4 % e.e; in [6], 91.3 % e.e; in series [7], 69.9 % e.e; in [8], 33.2 % e.e; in series [9], 8.4 % e.e; in series [10], 26.8 % e.e. In series [12], the “enantiomer excess” value is on record as 46.0 % e.e.

For the compound `COC(C(=O)OC[C@H]1O[C@@H](n2cc(F)c(=O)[nH]c2=O)[C@H](O)[C@@H]1O)c1ccccc1` (stereo partly drawn) [IIb, 5'-(RS)-(2-methoxy-2-phenylacetyl)-5-fluorouridine], the “enantiomer excess” value in series [3] worked out at 55.0 % e.e; in series [6], 81.1 % e.e; in series [7], 81.5 % e.e; in series [8], 6.0 % e.e; in series [9] it was 42.5 % e.e; in [10] it was 84.1 % e.e. Moreover, the “enantiomer excess” value in series [12] is recorded as 18.5 % e.e. Besides, the metabolised at 12 h in series [3] (rat, whole blood) was 14.8%; in series [13], 23.7%; in series [14], 23%; in series [15] it was 27.7%.

For the compound `CO[C@H](C(=O)Oc1ccc(N(CCCl)CCCl)cc1)c1ccccc1` [(S)-(+)-Ib, 4-bis(2-chloroethyl)aminophenyl 2-methoxy-2-phenylacetate], the “number of cells, % for the value of the control” value was 95% in series [1] (0.01 μM); 83% in series [1] (0.1 μM); 30% in [1] (1 μM); 18% in [1] (10 μM); 9% in series [1] (100 μM).

For `O=C(Oc1ccc(N(CCCl)CCCl)cc1)[C@H](Cc1ccccc1)NC(=O)C(F)(F)F` [(S)-(-)-Ic, 4-bis(2-chloroethyl)aminophenyl 2-trifluoroacetamido-3-phenylpropionate], the “multiplication of Anr4 cells suppressed to % of the control” value in series [1] (10 μM) was found to be 25%.

On to `O=C(Oc1ccc(N(CCCl)CCCl)cc1)[C@@H](Cc1ccccc1)NC(=O)C(F)(F)F` [(R)-(+)-Ic, 4-bis(2-chloroethyl)aminophenyl 2-trifluoroacetamido-3-phenylpropionate], for which, in series [1] (10 μM), the “multiplication of Anr4 cells suppressed to % of the control” value worked out at 14%. The “suppression of multiplication of Anr4 cells, comparison of enantiomers” value in series [1] is listed as “stronger cell multiplication-suppressing effect than (S)-(-)-Ic”.
